Measurements published in patent US20230145555A1 (priority 2020, published 2023).
Like-named read-outs stand apart in the source and are kept apart here.

How the values were obtained:
[1] = system: NLRP3 inflammasome; settings: macrophages; cited from earlier work
[2] = cited from earlier work
[3] = system: K18-hACE2 transgenic mouse; type: in vivo; settings: after 7 days
[4] = system: SARS-CoV-2; assay: Proof of concept study: time to negative SARS-CoV-2 test in asymptomatic positive patients; type: in vivo, human; settings: resveratrol alone by nasal and throat spray and/or inhalation, 6.0 mg per day for 2 weeks; 40 patients
From the text: About 100 adult asymptomatic patients, which are positive for SARS-CoV-2, are included in the study after a confirmatory test. […] Subsequently, the patients have a daily SARS-CoV-2 tests until day 7 and then at End of Treatment day 14.

[5] = RSV 30 mg in food (aqueous phospholipid formulation)
[6] = RSV 45 mg in food (aqueous phospholipid formulation)
[7] = RSV 60 mg in food (aqueous phospholipid formulation)

Q: Which “NLRP3 inflammasome-derived IL-1β secretion and pyroptosis” value [1] does the source give for `Oc1ccc(/C=C/c2cc(O)cc(O)c2)cc1` [RSV, resveratrol] here?
A: inhibits

Q: What about the solubility in water [2] of the same compound?
A: almost insoluble

Q: What about the “Survival Rate [%]” value [3, 5] of the same compound?
A: 37.5%

Q: What about the “Survival Rate n/8” value [3, 5] of the same compound?
A: 3 n/8

Q: And the “Survival Rate [%]” value [3, 6]?
A: 50%

Q: What about the “Survival Rate n/8” value [3, 6] of the same compound?
A: 4 n/8

Q: What about the “Survival Rate [%]” value [3, 7] of the same compound?
A: 62.5%

Q: What about the “Survival Rate n/8” value [3, 7] of the same compound?
A: 5 n/8

Q: And the “time to negative SARS-CoV-2 test compared to patients without treatment” value [4]?
A: significantly earlier
